Assay results from patent publication US20250325684A1, “POTENT ANTI-CANCER CYCLOTIDES” (University of Southern California, priority 2022, published 2025).

Assays:
[1] = system: SW480; assay: MTT cell viability, SW480 cells; assay type: cell-based, human; details: Homo sapiens, SW480 colon adenocarcinoma, p53 Mutant
Protocol: (§1) Cell viability assay in several human cancer cell lines (See Tables 1 to 10). Cell lines were cultured in RPMI 1640 (or recommended medium when indicated) medium supplemented with 10% fetal calf serum, penicillin (50 IU/mL) and streptomycin ([…]) at 37° C. in 5% CO2. Cell viability studies was carried using the MTT (3-(4,5-dimethylthiazol-2-yl)-2,5-diphenyltetrazolium bromide) assay as previously described (31). Briefly, ≈2×10^3 CRC cells were be seeded in 96-well microtiter plates in 100 μL RPMI 1640 in the presence of 10% calf serum. […] After 1 h, 210 μL/well of full complemented media was added, the cells were grown for 48 h and then treated with 20 μL of a solution of MTT (5 mg/mL) for 2 h. The medium was discarded and DMSO ([…]) was added to each well and incubated with gentle shaking for 20 min at room temperature. The absorbance at 595 nm of the solution is analyzed using a Tecan Genios Multifunctional Microplate Reader (Tecan System Inc) and the background at 670 nm subtracted. RNA-Seq analysis was performed using state-of-the-art bioinformatics tools. Briefly, raw RNA-Seq reads were mapped to human genome (hg38) using STAR aligner (v2.7.3a). Gencode Release 36 reference was used for annotation. Transcript and gene expression levels were quantified using the IsoEM (37) with default parameters. Counts per million (CPM) method is used for normalization. Differential expression was done using DESeq2 with default parameters. Genes involved in different biological pathways (human) were searched from Geneontology (http://geneontology.org/). Bioinformatics results can be validated by using Partek Flow (v10.0.21.0912), a bioinformatics pipeline developed by Zymo Research (https://www.zymoresearch.com/).
(§2) Cell viability was evaluated using the MTT assay as described above.

[2] = system: U937; assay: MTT cell viability, U937 cells; assay type: cell-based, human; details: Homo sapiens, U-937, U937 adult acute monocytic leukemia, p53 Mutant
Protocol: as §1, §2

[3] = system: BxPC-3; assay: MTT cell viability, BxPC-3 cells; assay type: cell-based, human; details: Homo sapiens, BxPC-3 pancreatic ductal adenocarcinoma, p53 Mutant
Protocol: as §1, §2

[4] = system: NCl-H69; assay: MTT cell viability, NCl-H69 cells; assay type: cell-based, human; details: Homo sapiens, NCl-H69 lung small cell carcinoma, p53 Mutant
Protocol: as §1, §2

[5] = system: MIA PaCa-2; assay: MTT cell viability, MIA PaCa-2 cells; assay type: cell-based, human; details: Homo sapiens, MIA PaCa-2 pancreatic ductal adenocarcinoma, p53 Mutant
Protocol: as §1, §2

[6] = system: MOLM-13; assay: MTT cell viability, MOLM-13 cells; assay type: cell-based, human; details: Homo sapiens, MOLM-13 adult acute myeloid leukemia, p53 WT
Protocol: as §1, §2

[7] = system: NCl-A549; assay: MTT cell viability, NCl-A549 cells; assay type: cell-based, human; details: Homo sapiens, NCl-A549 lung adenocarcinoma, p53 WT
Protocol: as §1, §2

[8] = system: NCl-H522; assay: MTT cell viability, NCl-H522 cells; assay type: cell-based, human; details: Homo sapiens, NCl-H522 lung adenocarcinoma, p53 Mutant (Deletion)
Protocol: as §1, §2

[9] = system: MV4-11; assay: MTT cell viability, MV4-11 cells; assay type: cell-based, human; details: Homo sapiens, MV4-11 childhood acute monocytic leukemia, p53 WT
Protocol: as §1, §2

[10] = system: NCl-H1299; assay: MTT cell viability, NCl-H1299 cells; assay type: cell-based, human; details: Homo sapiens, NCl-H1299 lung large cell carcinoma, p53 Null
Protocol: as §1, §2

[11] = system: HCT116^+/+; assay: MTT cell viability, HCT116 p53 wild-type cells; assay type: cell-based, human; details: Homo sapiens, HCT-116
Protocol: as §1, §2

[12] = system: NCl-H23; assay: MTT cell viability, NCl-H23 cells; assay type: cell-based, human; details: Homo sapiens, NCl-H23 lung adenocarcinoma, p53 Mutant
Protocol: as §1, §2

[13] = system: HPAF-II; assay: MTT cell viability, HPAF-II cells; assay type: cell-based, human; details: Homo sapiens, HPAF-II pancreatic ductal adenocarcinoma, p53 Mutant
Protocol: as §1, §2

[14] = system: CFPAC-1; assay: MTT cell viability, CFPAC-1 cells; assay type: cell-based, human; details: Homo sapiens, CFPAC-1 pancreatic ductal adenocarcinoma, p53 Mutant
Protocol: as §1, §2

[15] = system: MSCLC 494; assay: MTT cell viability, MSCLC 494 cells; assay type: cell-based; details: Mus musculus, MSCLC 494 murine small cell lung cancer
Protocol: as §1, §2

[16] = system: Caco-2; assay: MTT cell viability, Caco-2 cells; assay type: cell-based, human; details: Homo sapiens, Caco-2 colon adenocarcinoma, p53 Mutant
Protocol: as §1, §2

[17] = system: HCT116^−/−; assay: MTT cell viability, HCT116 p53-null cells; assay type: cell-based, human; details: Homo sapiens, HCT-116
Protocol: as §1, with “Counts per million (CPM) method is used for normalization. Differential expression was done using DESeq2 with default parameters. Genes involved in different biological pathways (human) were searched from Geneontology (http://geneontology.org/). Bioinformatics results can be validated by using Partek Flow (v10.0.21.0912), a bioinformatics pipeline developed by Zymo Research (https://www.zymoresearch.com/).” left out
as §2

[18] = system: NCl-H526; assay: MTT cell viability, NCl-H526 cells; assay type: cell-based, human; details: Homo sapiens, NCl-H526 lung small cell carcinoma, p53 Null
Protocol: as §1, §2

[19] = system: Jurkat; assay: MTT cell viability, Jurkat cells; assay type: cell-based, human; details: Homo sapiens, Jurkat childhood T acute lymphoblastic leukemia, p53 Mutant
Protocol: as §1, §2

[20] = system: PANC-1; assay: MTT cell viability, PANC-1 cells; assay type: cell-based, human; details: Homo sapiens, PANC-1 pancreatic ductal adenocarcinoma, p53 Mutant
Protocol: as §1, §2

## CC(C)(C)C[C@@H]1N[C@@H](C(=O)N[C@H]2CC[C@H](O)CC2)[C@H](c2cccc(Cl)c2F)[C@]12C(=O)Nc1cc(Cl)ccc12 [MI-77301]
[1]
  EC50: 26.1 ± 3.3 µM
[2]
  EC50: 9.6 ± 2.2 µM
[3]
  EC50: 17.3 ± 2.3 µM
[4]
  EC50: 31.7 ± 5.2 µM
[5]
  EC50: 10.5 ± 1.6 µM
[6]
  EC50: 0.7 ± 0.1 µM
[7]
  EC50: 15.8 ± 2.2 µM
[8]
  EC50: 22.7 ± 2.8 µM
[9]
  EC50: 0.3 ± 0.03 µM
[10]
  EC50: 21.5 ± 2.5 µM
[11]
  EC50: 2.7 ± 0.2 µM
[12]
  EC50: 10.7 ± 1.9 µM
[13]
  EC50: 6.7 ± 1 µM
[14]
  EC50: 22.1 ± 1.6 µM
[15]
  EC50: 15.8 ± 2.2 µM
[16]
  EC50: > 50 µM
[17]
  EC50: 23.7 ± 1.9 µM
[18]
  EC50: 9.7 ± 1.8 µM
[19]
  EC50: 12.1 ± 1.6 µM
[20]
  EC50: 12.7 ± 1.6 µM
